Here are results for 1 compound from US20230364051A1, “FORMULATIONS AND METHODS FOR IMPROVING AVIAN HEALTH” (CORNELL UNIVERSITY, priority 2022, published 2023).

Marks after values point to notes of the source that are not given here.

Assay [1] in a line: Body weight and cecum weight at hatch after intraamniotic administration. In kind it is in vivo, Gallus gallus. The note with it: for Average Body Weight / Average Cecum Weight: day 17, at hatch. The method, then:
(§1) Cornish-cross fertile broiler eggs (Gallus gallus, n = 39) were obtained from a commercial hatchery (Moyer’s chicks, Quakertown, PA, USA). The eggs were incubated under optimal conditions at the Cornell University Animal Science Poultry Farm Incubator [18]. All animal protocols were approved by Cornell University Institutional Animal Care and Use committee (IACUC #2020-0077). At day 17 of embryonic incubation, eggs containing viable embryos were weighed and divided into 5 groups, with all treatment groups assigned eggs of similar weight frequency distribution. Each group was then injected with the specific solution (1 mL per egg) with a 21-gauge needle into the amniotic fluid. Treatments in powder form were separately diluted in DI H2O. Two treatment groups (1.25, 2.5 wt. %), two controls (H2O and non-injected), and a positive control (5 wt. % inulin) were administered. After injection, the injection holes were sealed with cellophane tape and the eggs were placed in hatching baskets such that each treatment was equally represented at each incubator location. Immediately upon hatch (day 21), blood was taken for hemoglobin determination and all chicks were then euthanized by CO2 exposure. The small intestine, pectoral muscle, cecum, and liver were collected, immediately frozen in liquid nitrogen, and then stored in a -80° C. freezer until analysis.

The test system of assay [2] is cecal microbiota pathways. Nature of the assay: Cecal 16S rRNA gene sequencing, LEfSe analysis. It is filed as in vivo, Gallus gallus. To be noted: genistein treatment; cecal contents. How it is done: as §1, with “analysis. […]” for “analysis.”
Where [3] appears, read: 1.25 wt. % genistein intraamniotic.
Setting [4] is: 2.5 wt. % genistein intraamniotic.

Consider `O=c1c(-c2ccc(O)cc2)coc2cc(O)cc(O)c12` [Genistein, genistein], for which, in assay [1] (setting [3]), the “Average Body Weight” value is 45.83 ± 0.99 ^ab g and the “Average Cecum Weight” value is given as 0.50 ± 0.04 ^ab g. Also, in assay [1] (setting [4]), the “Average Body Weight” value was 47.69 ± 1.30 ^a g and the “Average Cecum Weight” value was 0.44 ± 0.03 ^b g. Moreover, the “Body weight vs control” value in assay [1] (2.5 wt. % genistein vs non-injected group, p < 0.05) was “significantly higher”. In assay [1] (2.5 wt. % genistein, p < 0.05), the “Cecum weight of no injection and H2O groups compared to treated group” value was “significantly greater values”. Besides, in assay [2], the “Pathways associated with de novo synthesis of vitamin B12 (LEfSe)” value was “enriched”.
